Here are results for one molecule from article PMC11472313, “Development of Fragment-Based Inhibitors of the Bacterial Deacetylase LpxC with Low Nanomolar Activity” (Journal of Medicinal Chemistry, 2024).

Assay [1] addresses T1, E. coli LpxC C63A (Escherichia coli, UniProt P0A725, C63A).
T1 construct: made in house; host or cells: E. coli BL21(DE3)
Put plainly: LC–MS/MS-based determination of KM. The assay is classed as biochemical. The conditions noted are these: substrate 1, LC–MS/MS-based assay. The procedure: In order to determine the inhibitory activities of the compounds of interest toward E. coli LpxC, a fluorescence-based enzyme assay was deployed, in which the formed deacetylated natural product UDP-3-O-[(R)-3-hydroxymyristoyl]glucosamine (2) is transformed into a fluorescent isoindole with o-phthaldialdehyde and 2-mercaptoethanol.[48],[49] […] The KM of E. coli LpxC C63A was determined experimentally using a mass spectrometry-based LpxC assay (Figure S8, Supporting Information, vide infra).
Generally, the LC–MS/MS-based method represents an alternative to analyze compounds, which cannot be tested in the fluorescence-based assay, like primary amines and intrinsically fluorescent compounds. Additionally, it offers the advantage that lower substrate concentrations (10%) are used in the established protocol compared to the fluorescence-based assay, in which the detection of respectively low product concentrations would be difficult to detect due to inherently high background fluorescence. […] Additionally, the KM of E. coli LpxC C63A could be determined using the LC–MS/MS-based method (Figure S8, Supporting Information, vide supra). […]
The values of KM and vmax for the E. coli LpxC C63A- as well as the P. aeruginosa LpxC-catalyzed deacetylation of UDP-3-O-[(R)-3-hydroxymyristoyl]-N-acetylglucosamine (1) were determined using the conditions of the established LC-MS/MS-based enzyme assay. […]

Assay [2] has as its target T2, P. aeruginosa LpxC (Pseudomonas aeruginosa, UniProt P47205).
T2 construct: made in house; host or cells: E. coli BL21(DE3)
Put plainly: LC–MS/MS-based determination of KM. The assay is classed as biochemical. The conditions noted are these: read-out: KM of the P. aeruginosa LpxC-catalyzed deacetylation; substrate 1, LC–MS/MS-based assay. From the text:
Generally, the LC–MS/MS-based method represents an alternative to analyze compounds, which cannot be tested in the fluorescence-based assay, like primary amines and intrinsically fluorescent compounds. Additionally, it offers the advantage that lower substrate concentrations (10%) are used in the established protocol compared to the fluorescence-based assay, in which the detection of respectively low product concentrations would be difficult to detect due to inherently high background fluorescence. […] Additionally, the KM of E. coli LpxC C63A could be determined using the LC–MS/MS-based method (Figure S8, Supporting Information, vide supra).
Determination of enzymatic parameters
The values of KM and vmax for the E. coli LpxC C63A- as well as the P. aeruginosa LpxC-catalyzed deacetylation of UDP-3-O-[(R)-3-hydroxymyristoyl]-N-acetylglucosamine (1) were determined using the conditions of the established LC-MS/MS-based enzyme assay.
The wells in a black, non-binding, 96-well fluorescence microplate (Greiner Bio One, Frickenhausen) were filled with 93 µL of varying concentrations of UDP-3-O-[(R)-3-hydroxymyristoyl]-N-acetylglucosamine (26.9 µM, 10.8 µM, 2.69 µM, 1.08 µM, 0.538 µM, 0.269 µM) in assay buffer (40 mM sodium morpholinoethanesulfonic acid (pH = 6.0), 80 µM dithiothreitol, 0.02% Brij 35). […]

T2 sequence (P47205 whole entry): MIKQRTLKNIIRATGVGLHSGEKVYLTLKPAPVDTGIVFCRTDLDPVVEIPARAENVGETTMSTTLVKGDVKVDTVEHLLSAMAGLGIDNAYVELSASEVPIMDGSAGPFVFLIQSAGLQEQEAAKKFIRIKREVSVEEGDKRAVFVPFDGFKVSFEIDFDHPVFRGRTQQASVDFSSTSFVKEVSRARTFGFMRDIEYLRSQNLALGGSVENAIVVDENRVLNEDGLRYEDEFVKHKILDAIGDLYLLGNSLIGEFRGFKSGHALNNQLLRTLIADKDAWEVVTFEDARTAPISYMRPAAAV
T1 sequence (P0A725 whole entry C63A): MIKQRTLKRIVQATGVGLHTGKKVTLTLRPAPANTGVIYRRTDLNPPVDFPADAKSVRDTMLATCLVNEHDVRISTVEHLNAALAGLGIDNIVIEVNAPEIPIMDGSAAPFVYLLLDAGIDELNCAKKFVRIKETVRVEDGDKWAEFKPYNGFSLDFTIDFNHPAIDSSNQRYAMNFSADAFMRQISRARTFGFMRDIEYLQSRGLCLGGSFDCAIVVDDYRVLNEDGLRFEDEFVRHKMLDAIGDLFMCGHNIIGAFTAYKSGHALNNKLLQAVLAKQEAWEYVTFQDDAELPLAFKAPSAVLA

By Km is commonly meant the substrate concentration at which the rate is half of its maximum. `CCCCCCCCCCCC(O)CC(=O)OC1C(O)C(CO)OC(OP(=O)(O)OP(=O)(O)OCC2OC(n3ccc(=O)[nH]c3=O)C(O)C2O)C1NC(C)=O` [compound 1, UDP-3-O-[(R)-3-hydroxymyristoyl]-N-acetylglucosamine]: the figures for the Km in assay [1] and in assay [2] were 3.6 µM and 4.7 µM, respectively.
